Measured values: US9695155B2, “Herbicidal substituted pyrimidinyloxy benzene compounds” (E. I. DU PONT DE NEMOURS AND COMPANY, priority 2013, dated 2017)

Experiments:
velvetleaf = test: Test C postemergence; format: in vivo, Abutilon theophrasti
In short: (§1)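 Visual injury score versus untreated controls, 0 = no effect, 100 = complete control, taken 13 to 15 days after treatment in the greenhouse. Pre-emergence pots held loam/sand; post-emergence plants grew in sphagnum peat/vermiculite mix and were sprayed at the 1- to 4-leaf stage.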

wheat, winter = test: Test C postemergence; format: in vivo, Triticum aestivum
In short: as §1

pigweed [1] = test: Test A preemergence; format: in vivo, Amaranthus retroflexus
In short: (§2)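 Injury scores run from 0, no effect, to 100, complete control, judged by eye against untreated plants roughly 10 days after treatment. Chemicals carried a surfactant in a non-phytotoxic solvent and went onto loam–sand soil preemergence or onto one- to two-leaf seedlings postemergence.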

wild oat = test: Test C postemergence; format: in vivo, Avena fatua
In short: as §1

pigweed [2] = test: Test A postemergence; format: in vivo, Amaranthus retroflexus; details: 0 to 100 scale, 0 no effect, 100 complete control
In short: as §2

chickweed = test: Test C postemergence; format: in vivo, Stellaria media
In short: as §1

giant foxtail [3] = test: Test A postemergence; format: in vivo, Setaria faberii; details: 0 to 100 scale, 0 no effect, 100 complete control
In short: as §2

giant foxtail [4] = test: Test C postemergence; format: in vivo, Setaria faberii
In short: as §1

giant foxtail [5] = test: Test A preemergence; format: in vivo, Setaria faberii
In short: as §2

ragweed = test: Test C postemergence; format: in vivo, Ambrosia elatior
In short: as §1

soybean = test: Test C postemergence; format: in vivo, Glycine max
In short: as §1

[6] = 16 g ai/ha, postemergence, 0 is no effect, 100 is complete control
[7] = 31 g ai/ha, postemergence, visual rating, scale 0 to 100 (0 no effect, 100 complete control), 13 to 15 days
[8] = 125 g ai/ha, postemergence, visual rating, scale 0 to 100 (0 no effect, 100 complete control)
[9] = Postemergence, 62 g ai/ha, scale 0 to 100 (0 no effect, 100 complete control), 13 to 15 days
[10] = 31 g ai/ha, 0 to 100 scale where 0 is no effect and 100 is complete control, visual, approximately 10 days

FCc1cccc(Oc2ncc(Cl)cn2)c1-n1cc(I)cn1 [Compound 245]
Plant response rating (0 to 100), Velvetleaf (velvetleaf; [6]): 5 | Velvetleaf plant response rating (velvetleaf; [7]): 10 | Plant response rating, Velvetleaf (velvetleaf; [8]): 55 | Plant response rating, Velvetleaf (velvetleaf; [9]): 35 | Plant response rating (0 to 100), Wheat (wheat, winter; [6]): 0 | Wheat plant response rating (wheat, winter; [7]): 0 | Plant response rating, Wheat (wheat, winter; [8]): 5 | Plant response rating, Wheat (wheat, winter; [9]): 0 | Plant response rating, Pigweed (pigweed [1]; [10]): 90 | Pigweed plant response rating (0 to 100 scale) (pigweed [1]; 125 g ai/ha): 90 | Plant response rating (0 to 100), Oat, Wild (wild oat; [6]): 0 | Oat, Wild plant response rating (wild oat; [7]): 0 | Plant response rating, Oat, Wild (wild oat; [8]): 5 | Plant response rating, Oat, Wild (wild oat; [9]): 5 | Plant response rating, Pigweed (pigweed [2]; 31 g ai/ha): 0 | Plant response rating, Pigweed (pigweed [2]; 125 g ai/ha): 90 | Plant response rating (0 to 100), Chickweed (chickweed; [6]): 5 | Chickweed plant response rating (chickweed; [7]): 60 | Plant response rating, Chickweed (chickweed; [8]): 100 | Plant response rating, Chickweed (chickweed; [9]): 80 | Plant response rating, Foxtail, Giant (giant foxtail [3]; 31 g ai/ha): 0 | Plant response rating, Foxtail, Giant (giant foxtail [3]; 125 g ai/ha): 80 | Plant response rating (0 to 100), Foxtail, Giant (giant foxtail [4]; [6]): 35 | Foxtail, Giant plant response rating (giant foxtail [4]; [7]): 35 | Plant response rating, Foxtail, Giant (giant foxtail [4]; [8]): 15 | Plant response rating, Foxtail, Giant (giant foxtail [4]; [9]): 20 | Plant response rating, Foxtail, Giant (giant foxtail [5]; [10]): 60 | Foxtail, Giant plant response rating (0 to 100 scale) (giant foxtail [5]; 125 g ai/ha): 100 | Plant response rating (0 to 100), Ragweed (ragweed; [6]): 35 | Ragweed plant response rating (ragweed; [7]): 40 | Plant response rating, Ragweed (ragweed; [8]): 60 | Plant response rating, Ragweed (ragweed; [9]): 45 | Plant response rating (0 to 100), Soybean (soybean; [6]): 40 | Soybean plant response rating (soybean; [7]): 60 | Plant response rating, Soybean (soybean; [8]): 90 | Plant response rating, Soybean (soybean; [9]): 60
